Experiments:
[1] = target: Receptor-type tyrosine-protein kinase FLT3 (Homo sapiens, UniProt P36888, D835Y); experiment: Inhibition of recombinant FLT3 D835Y mutant (unknown origin) by TR-FRET assay
[2] = target: Receptor-type tyrosine-protein kinase FLT3 (Homo sapiens, UniProt P36888, ITD); experiment: Inhibition of recombinant FLT3 ITD mutant (unknown origin) by RBC kinase assay
[3] = target: T1, Receptor-type tyrosine-protein kinase FLT3 (Homo sapiens, UniProt P36888); experiment: Inhibition of recombinant FLT3 (unknown origin) by TR-FRET assay
T1 sequence (P36888 whole entry): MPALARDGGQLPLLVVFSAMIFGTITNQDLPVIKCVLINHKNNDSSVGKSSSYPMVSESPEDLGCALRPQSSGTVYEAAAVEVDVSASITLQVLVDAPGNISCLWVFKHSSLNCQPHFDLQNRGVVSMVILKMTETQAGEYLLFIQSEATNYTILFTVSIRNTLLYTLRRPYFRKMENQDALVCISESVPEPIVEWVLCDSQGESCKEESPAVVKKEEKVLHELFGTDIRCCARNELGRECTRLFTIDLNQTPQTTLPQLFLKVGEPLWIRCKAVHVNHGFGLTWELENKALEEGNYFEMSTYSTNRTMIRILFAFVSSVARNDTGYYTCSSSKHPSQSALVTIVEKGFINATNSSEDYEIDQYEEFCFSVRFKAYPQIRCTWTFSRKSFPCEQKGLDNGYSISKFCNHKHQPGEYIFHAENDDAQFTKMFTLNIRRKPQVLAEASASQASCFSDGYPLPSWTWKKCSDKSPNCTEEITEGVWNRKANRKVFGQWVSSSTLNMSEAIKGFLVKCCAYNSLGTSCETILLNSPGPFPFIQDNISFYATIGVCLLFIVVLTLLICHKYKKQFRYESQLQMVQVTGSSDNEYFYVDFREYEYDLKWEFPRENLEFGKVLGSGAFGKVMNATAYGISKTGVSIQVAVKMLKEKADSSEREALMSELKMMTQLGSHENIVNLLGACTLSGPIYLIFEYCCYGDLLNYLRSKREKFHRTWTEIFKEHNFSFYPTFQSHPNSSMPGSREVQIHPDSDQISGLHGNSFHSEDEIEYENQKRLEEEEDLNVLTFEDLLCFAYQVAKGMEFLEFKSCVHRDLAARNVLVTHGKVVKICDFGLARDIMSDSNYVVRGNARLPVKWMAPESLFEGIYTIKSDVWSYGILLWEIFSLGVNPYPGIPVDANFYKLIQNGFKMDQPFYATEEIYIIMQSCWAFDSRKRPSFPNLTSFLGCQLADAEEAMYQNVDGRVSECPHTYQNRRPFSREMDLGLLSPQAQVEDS

MV4-11 [4] = experiment: Antiproliferative activity against human MV4-11 cells after 72 hrs by luminescent cell viability assay; type: functional, cell-based; conditions: MV4-11, 72 h
[5] = target: MAP kinase-interacting serine/threonine-protein kinase 2 (Homo sapiens) (UniProt Q9HBH9); experiment: Inhibition of MNK2 (unknown origin) at 10 uM
[6] = Antiproliferative activity against human THP1 cells after 72 hrs by luminescent cell viability assay; type: functional, cell-based; conditions: THP-1, 72 h
K562 = experiment: Antiproliferative activity against human K562 cells assessed as growth inhibition at 5 uM after 72 hrs by luminescent cell viability assay; type: functional; conditions: K562, 72 h, read-out: GI
[7] = Antiproliferative activity against human HL60 cells assessed as growth inhibition at 5 uM after 72 hrs by luminescent cell viability assay; type: functional; conditions: HL-60, 72 h, read-out: GI
[8] = Antiproliferative activity against human HEK293T cells assessed as growth inhibition at 5 uM after 72 hrs by luminescent cell viability assay; type: cell-based, HEK-293T; conditions: read-out: GI
[9] = Antiproliferative activity against human THP1 cells assessed as growth inhibition at 5 uM after 72 hrs by luminescent cell viability assay; type: functional; conditions: THP-1, 72 h, read-out: GI
MV4-11 [10] = experiment: Antiproliferative activity against human MV4-11 cells assessed as growth inhibition at 5 uM after 72 hrs by luminescent cell viability assay; type: functional; conditions: MV4-11, 72 h, read-out: GI
[11] = target: MAP kinase-interacting serine/threonine-protein kinase 1 (Homo sapiens) (UniProt Q9BUB5); experiment: Inhibition of MNK1 (unknown origin) at 10 uM
Chain of MAP kinase-interacting serine/threonine-protein kinase 1 (Homo sapiens) (Q9BUB5 whole entry, looked up): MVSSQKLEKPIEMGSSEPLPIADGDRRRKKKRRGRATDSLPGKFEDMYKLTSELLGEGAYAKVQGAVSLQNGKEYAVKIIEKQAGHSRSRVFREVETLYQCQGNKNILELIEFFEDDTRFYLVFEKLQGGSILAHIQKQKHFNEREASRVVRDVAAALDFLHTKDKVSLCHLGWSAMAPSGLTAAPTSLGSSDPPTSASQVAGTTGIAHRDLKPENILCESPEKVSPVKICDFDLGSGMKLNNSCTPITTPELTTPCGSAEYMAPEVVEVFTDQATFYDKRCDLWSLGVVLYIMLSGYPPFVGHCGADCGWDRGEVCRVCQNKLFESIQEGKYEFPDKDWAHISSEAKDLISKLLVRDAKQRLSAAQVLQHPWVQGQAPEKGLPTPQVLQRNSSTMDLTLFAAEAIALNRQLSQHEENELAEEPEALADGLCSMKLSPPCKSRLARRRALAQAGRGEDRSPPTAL

Chain of MAP kinase-interacting serine/threonine-protein kinase 2 (Homo sapiens) (Q9HBH9 whole entry, looked up): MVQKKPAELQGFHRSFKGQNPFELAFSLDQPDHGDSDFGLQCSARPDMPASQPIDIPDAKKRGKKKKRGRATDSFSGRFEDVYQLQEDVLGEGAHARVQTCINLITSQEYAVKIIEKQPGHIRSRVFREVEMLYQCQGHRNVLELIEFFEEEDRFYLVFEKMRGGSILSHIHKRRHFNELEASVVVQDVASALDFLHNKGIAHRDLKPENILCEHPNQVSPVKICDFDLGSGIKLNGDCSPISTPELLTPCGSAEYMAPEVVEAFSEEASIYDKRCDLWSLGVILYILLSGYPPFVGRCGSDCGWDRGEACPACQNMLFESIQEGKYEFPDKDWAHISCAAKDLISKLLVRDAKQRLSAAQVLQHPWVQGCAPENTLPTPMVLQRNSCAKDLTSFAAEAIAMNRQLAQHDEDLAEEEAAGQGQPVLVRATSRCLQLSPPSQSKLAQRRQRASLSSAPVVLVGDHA

SMILES | IC50 [1] | IC50 [2] | IC50 [3] | IC50 (MV4-11 [4]) | inhibition [5] | inhibition [11] | IC50 [6] | inhibition of growth at 5 µM (K562) | inhibition of growth at 5 µM [7] | inhibition at 72 h, 5 µM [8] | inhibition of growth at 5 µM [9] | inhibition of growth at 5 µM (MV4-11 [10])
C=CC(=O)NC/C=C/c1cc(OC)cc(O)c1C(=O)OC(C)C | ≥ 30 µM | ≥ 30 µM | ≥ 30 µM | > 10 µM | – | – | – | – | – | – | – | –
CCN(CC)C/C=C/C(=O)NC/C=C/c1cc(OCCc2ccc(F)cc2)cc(O)c1C(=O)OC(C)C | > 30 µM | 1.11 µM | > 30 µM | 4.04 µM | 0.8% | 7.8% | > 10 µM | 49.8% | 36.8% | 28.5% | 25.7% | 84.9%
C=CS(=O)(=O)NC/C=C/c1cc(OC)cc(O)c1C(=O)OCc1ccc(Br)cc1 | ≥ 30 µM | ≥ 30 µM | ≥ 30 µM | 6.06 µM | – | – | 6.24 µM | 38.4% | 8.1% | 0% | 31.2% | 61%
CCN(CC)C/C=C/C(=O)NC/C=C/c1cc(OC)cc(O)c1C(=O)O[C@@H](C)C(C)C | ≥ 30 µM | ≥ 30 µM | ≥ 30 µM | > 10 µM | – | – | – | – | – | – | – | –
C/C=C/C(=O)NC/C=C/c1cc(OCCc2ccc(F)cc2)cc(O)c1C(=O)OC(C)C | ≥ 30 µM | ≥ 30 µM | ≥ 30 µM | > 10 µM | – | – | – | – | – | – | – | –
C/C=C/C(=O)NC/C=C/c1cc(OC)cc(O)c1C(=O)OC(C)C | ≥ 30 µM | ≥ 30 µM | ≥ 30 µM | > 10 µM | – | – | – | – | – | – | – | –
C=CC(=O)NC/C=C/c1cc(OC)cc(O)c1C(=O)O[C@@H](C)C(C)C | ≥ 30 µM | ≥ 30 µM | ≥ 30 µM | > 10 µM | – | – | – | – | – | – | – | –
C=CS(=O)(=O)NC/C=C/c1cc(OC)cc(O)c1C(=O)OCc1ccc(F)cc1 | ≥ 30 µM | ≥ 30 µM | ≥ 30 µM | 5.14 µM | – | – | 6.55 µM | 52% | 10.9% | 0% | 41.7% | 70.5%
C=CC(=O)NC/C=C/c1cc(OCCc2ccc(F)cc2)cc(O)c1C(=O)OC(C)C | > 30 µM | 8.31 µM | > 30 µM | 4.45 µM | 1.1% | 5.6% | > 10 µM | 18.5% | 12.2% | 25.8% | 23.2% | 61.8%
C=CS(=O)(=O)NC/C=C/c1cc(OC)cc(O)c1C(=O)OCC(C)c1ccccc1 (stereo unspecified) | ≥ 30 µM | ≥ 30 µM | ≥ 30 µM | 7.73 µM | – | – | > 10 µM | 16.7% | 9.5% | 22.5% | 5.6% | 9.6%
C=CS(=O)(=O)NC/C=C/c1cc(OC)cc(O)c1C(=O)OCC1CCCCC1 | ≥ 30 µM | ≥ 30 µM | ≥ 30 µM | 5.86 µM | – | – | 7.88 µM | 27.4% | 7.5% | 31.2% | 26.5% | 56.4%
COc1cc(O)c2c(c1)CCC[C@H](O)[C@H](O)C(=O)/C=C\C[C@H](C)OC2=O | 0.011 µM | 0.036 µM | 0.062 µM | 0.01 µM | – | – | 1.18 µM | 69.7% | 86% | 74.6% | 81.5% | 99.7%

The remaining molecules from weak to strong by IC50 [1], led by results:

IC50 [1] | IC50 [2] | IC50 [3] | IC50 (MV4-11 [4]) | inhibition [5] | inhibition [11] | SMILES | IC50 [6] | inhibition of growth at 5 µM (K562) | inhibition of growth at 5 µM [7] | inhibition at 72 h, 5 µM [8] | inhibition of growth at 5 µM [9] | inhibition of growth at 5 µM (MV4-11 [10])
18.6 µM | 4.23 µM | > 30 µM | 7.61 µM | – | – | C=CS(=O)(=O)NCCCc1cc(OCCN2CCOCC2)cc(O)c1C(=O)OC(C)C | > 10 µM | 13.8% | 2% | 28.4% | 0% | 20.4%
15.9 µM | – | > 30 µM | > 10 µM | 5.2% | 12.5% | CCN(CC)C/C=C/C(=O)NC/C=C/c1cc(OC)cc(O)c1C(=O)OC(C)C | – | – | – | – | – | –
14.2 µM | – | > 50 µM | > 10 µM | – | – | COc1cc(O)c(C(=O)OC(C)C)c(/C=C/CNC(C)=O)c1 | – | – | – | – | – | –
10.5 µM | – | 16.2 µM | > 10 µM | 12.9% | 5.8% | C/C=C/C(=O)NC/C=C/c1cc(OCCCN2CCOCC2)cc(O)c1C(=O)OC(C)C | – | – | – | – | – | –
5.2 µM | > 30 µM | 3.01 µM | 3.38 µM | 0% | 8.6% | COc1cc(O)c(C(=O)OCC(C)c2ccccc2)c(/C=C/CN2C(=O)C=CC2=O)c1 (stereo unspecified) | > 10 µM | 74.9% | 56% | 0% | 0% | 99%
3.03 µM | 13.2 µM | 0.43 µM | 1.57 µM | 2.4% | 6.2% | COc1cc(O)c(C(=O)OC(C)C)c(CCCN2C(=O)C=CC2=O)c1 | 6.74 µM | 98.9% | 67.9% | 13.4% | 98.8% | 99.8%
2.81 µM | 0.5 µM | 9.61 µM | 3.74 µM | 6.5% | 8% | C=CC(=O)NC/C=C/c1cc(OCCCN2CCOCC2)cc(O)c1C(=O)OC(C)C | 20.7 µM | 23% | 8.1% | 26.5% | 9.1% | 73.9%
1.74 µM | > 30 µM | 1.9 µM | 1.01 µM | 0% | 4.3% | COc1cc(O)c(C(=O)OCc2ccc(Br)cc2)c(/C=C/CN2C(=O)C=CC2=O)c1 | 7.97 µM | 28.7% | 36.7% | 20.1% | 0% | 97.9%
0.95 µM | > 30 µM | 1.64 µM | 1.46 µM | 0% | 4.1% | COc1cc(O)c(C(=O)OCc2ccc(F)cc2)c(/C=C/CN2C(=O)C=CC2=O)c1 | 7.34 µM | 96.4% | 82.2% | 37.9% | 0% | 99.7%
0.94 µM | 0.98 µM | 0.15 µM | 1.89 µM | 3.1% | 8% | CC(C)OC(=O)c1c(O)cc(OCCCN2CCOCC2)cc1/C=C/CN1C(=O)C=CC1=O | 7.88 µM | 95.9% | 89.1% | 38.8% | 62.5% | 99.8%
0.81 µM | 8.87 µM | 0.58 µM | 3.51 µM | 1.8% | 8.8% | CC(C)OC(=O)c1c(O)cc(OCCN2CCOCC2)cc1CCCN1C(=O)C=CC1=O | 5.43 µM | 99.3% | 98.9% | 13.3% | 81.5% | 99.8%
